Assay results: US20230049952A1, “METHODS AND COMPOUNDS FOR RESTORING MUTANT P53 FUNCTION” (PMV Pharmaceuticals, Inc., priority 2020, published 2023)

Test system: p53 signaling pathway in MT373 tumors
Assay: MT373 syngeneic sarcoma model: mouse p53 signaling pathway profiling panel
Format: in vivo

CCn1c(C#CCNc2ccccc2)cc2cc(CNC3CCN(C)CC3)ccc21 [Compound 1, 1-Anilino-3-{1-ethyl-5-[(1-methyl-4-piperidylamino)methyl]-1H-indol-2-yl}-2-propyne]
Apex1 fold increase or percent reduction vs vehicle control (75 mg/kg BIDx1, 8 h): 19.97 fold or % | Atm fold increase or percent reduction vs vehicle control (75 mg/kg BIDx1, 8 h): 13.42 fold or % | Atr fold increase or percent reduction vs vehicle control (75 mg/kg BIDx1, 8 h): 8.05 fold or % | Bag1 fold increase or percent reduction vs vehicle control (75 mg/kg BIDx1, 8 h): 24.87 fold or % | Bax fold increase or percent reduction vs vehicle control (75 mg/kg BIDx1, 8 h): 1.97 fold or % | Bbc3 fold increase or percent reduction vs vehicle control (75 mg/kg BIDx1, 8 h): 2.97 fold or % | Bcl2 fold increase or percent reduction vs vehicle control (75 mg/kg BIDx1, 8 h): 7.84 fold or % | Bid fold increase or percent reduction vs vehicle control (75 mg/kg BIDx1, 8 h): 1.19 fold or % | Birc5 fold increase or percent reduction vs vehicle control (75 mg/kg BIDx1, 8 h): 15.16 fold or % | Brca1 fold increase or percent reduction vs vehicle control (75 mg/kg BIDx1, 8 h): 3.14 fold or % | Brca2 fold increase or percent reduction vs vehicle control (75 mg/kg BIDx1, 8 h): 5.75 fold or % | Btg2 fold increase or percent reduction vs vehicle control (75 mg/kg BIDx1, 8 h): 14.84 fold or % | Casp2 fold increase or percent reduction vs vehicle control (75 mg/kg BIDx1, 8 h): 17.74 fold or % | Ccnb1 fold increase or percent reduction vs vehicle control (75 mg/kg BIDx1, 8 h): 4.81 fold or % | Ccne1 fold increase or percent reduction vs vehicle control (75 mg/kg BIDx1, 8 h): 12.14 fold or % | Ccng1 fold increase or percent reduction vs vehicle control (75 mg/kg BIDx1, 8 h): 6.19 fold or % | Ccnh fold increase or percent reduction vs vehicle control (75 mg/kg BIDx1, 8 h): 15.28 fold or % | Cdc25a fold increase or percent reduction vs vehicle control (75 mg/kg BIDx1, 8 h): 15.20 fold or % | Cdk1 fold increase or percent reduction vs vehicle control (75 mg/kg BIDx1, 8 h): 32.00 fold or % | Cdk4 fold increase or percent reduction vs vehicle control (75 mg/kg BIDx1, 8 h): 37.50 fold or % | Cdkn1a fold increase or percent reduction vs vehicle control (75 mg/kg BIDx1, 8 h): 7.14 fold or % | Cdkn2a fold increase or percent reduction vs vehicle control (75 mg/kg BIDx1, 8 h): 31.09 fold or % | Chek1 fold increase or percent reduction vs vehicle control (75 mg/kg BIDx1, 8 h): 19.58 fold or % | Cradd fold increase or percent reduction vs vehicle control (75 mg/kg BIDx1, 8 h): 21.01 fold or % | Cul9 fold increase or percent reduction vs vehicle control (75 mg/kg BIDx1, 8 h): 1.73 fold or % | Dapk1 fold increase or percent reduction vs vehicle control (75 mg/kg BIDx1, 8 h): 1.37 fold or % | Dnmt1 fold increase or percent reduction vs vehicle control (75 mg/kg BIDx1, 8 h): 1.16 fold or % | E2f1 fold increase or percent reduction vs vehicle control (75 mg/kg BIDx1, 8 h): 1.05 fold or % | E2f3 fold increase or percent reduction vs vehicle control (75 mg/kg BIDx1, 8 h): 21.77 fold or % | Egfr fold increase or percent reduction vs vehicle control (75 mg/kg BIDx1, 8 h): 42.31 fold or % | Egr1 fold increase or percent reduction vs vehicle control (75 mg/kg BIDx1, 8 h): 59.72 fold or % | Ep300 fold increase or percent reduction vs vehicle control (75 mg/kg BIDx1, 8 h): 15.26 fold or % | Ercc1 fold increase or percent reduction vs vehicle control (75 mg/kg BIDx1, 8 h): 20.74 fold or % | Esr1 fold increase or percent reduction vs vehicle control (75 mg/kg BIDx1, 8 h): 1.22 fold or % | Fadd fold increase or percent reduction vs vehicle control (75 mg/kg BIDx1, 8 h): 2.66 fold or % | Fas fold increase or percent reduction vs vehicle control (75 mg/kg BIDx1, 8 h): 1.75 fold or % | Fasl fold increase or percent reduction vs vehicle control (75 mg/kg BIDx1, 8 h): 1.24 fold or % | Foxo3 fold increase or percent reduction vs vehicle control (75 mg/kg BIDx1, 8 h): 1.04 fold or % | Gadd45a fold increase or percent reduction vs vehicle control (75 mg/kg BIDx1, 8 h): 25.34 fold or % | Hif1a fold increase or percent reduction vs vehicle control (75 mg/kg BIDx1, 8 h): 1.26 fold or % | Il6 fold increase or percent reduction vs vehicle control (75 mg/kg BIDx1, 8 h): 68.47 fold or % | Jun fold increase or percent reduction vs vehicle control (75 mg/kg BIDx1, 8 h): 22.75 fold or % | Kras fold increase or percent reduction vs vehicle control (75 mg/kg BIDx1, 8 h): 1.03 fold or % | Lig4 fold increase or percent reduction vs vehicle control (75 mg/kg BIDx1, 8 h): 1.13 fold or % | Mdm2 fold increase or percent reduction vs vehicle control (75 mg/kg BIDx1, 8 h): 5.35 fold or % | Mdm4 fold increase or percent reduction vs vehicle control (75 mg/kg BIDx1, 8 h): 1.03 fold or % | Mel1 fold increase or percent reduction vs vehicle control (75 mg/kg BIDx1, 8 h): 24.40 fold or % | Mlh1 fold increase or percent reduction vs vehicle control (75 mg/kg BIDx1, 8 h): 12.48 fold or % | Msh2 fold increase or percent reduction vs vehicle control (75 mg/kg BIDx1, 8 h): 31.49 fold or % | Myod1 fold increase or percent reduction vs vehicle control (75 mg/kg BIDx1, 8 h): 4.56 fold or % | Nf1 fold increase or percent reduction vs vehicle control (75 mg/kg BIDx1, 8 h): 31.85 fold or % | Nfkb1 fold increase or percent reduction vs vehicle control (75 mg/kg BIDx1, 8 h): 11.36 fold or % | Pcna fold increase or percent reduction vs vehicle control (75 mg/kg BIDx1, 8 h): 32.47 fold or % | Pmaip1 fold increase or percent reduction vs vehicle control (75 mg/kg BIDx1, 8 h): 1.60 fold or % | Ppm1d fold increase or percent reduction vs vehicle control (75 mg/kg BIDx1, 8 h): 1.48 fold or % | Prc1 fold increase or percent reduction vs vehicle control (75 mg/kg BIDx1, 8 h): 1.28 fold or % | Prkca fold increase or percent reduction vs vehicle control (75 mg/kg BIDx1, 8 h): 5.77 fold or % | Pten fold increase or percent reduction vs vehicle control (75 mg/kg BIDx1, 8 h): 0.35 fold or % | Pttg1 fold increase or percent reduction vs vehicle control (75 mg/kg BIDx1, 8 h): 1.04 fold or % | Rb1 fold increase or percent reduction vs vehicle control (75 mg/kg BIDx1, 8 h): 16.87 fold or % | Rela fold increase or percent reduction vs vehicle control (75 mg/kg BIDx1, 8 h): 1.12 fold or % | Rprm fold increase or percent reduction vs vehicle control (75 mg/kg BIDx1, 8 h): 3.08 fold or % | Serpinb5 fold increase or percent reduction vs vehicle control (75 mg/kg BIDx1, 8 h): 3.96 fold or % | Sesn2 fold increase or percent reduction vs vehicle control (75 mg/kg BIDx1, 8 h): 3.24 fold or % | Sfn fold increase or percent reduction vs vehicle control (75 mg/kg BIDx1, 8 h): 1.12 fold or % | Sirt1 fold increase or percent reduction vs vehicle control (75 mg/kg BIDx1, 8 h): 1.09 fold or % | Stat1 fold increase or percent reduction vs vehicle control (75 mg/kg BIDx1, 8 h): 1.35 fold or % | Tnf fold increase or percent reduction vs vehicle control (75 mg/kg BIDx1, 8 h): 1.85 fold or % | Traf1 fold increase or percent reduction vs vehicle control (75 mg/kg BIDx1, 8 h): 1.23 fold or % | Trp53bp2 fold increase or percent reduction vs vehicle control (75 mg/kg BIDx1, 8 h): 12.87 fold or % | Trp53 fold increase or percent reduction vs vehicle control (75 mg/kg BIDx1, 8 h): 1.13 fold or % | Apex1 fold increase or percent reduction vs vehicle control (75 mg/kg BIDx1, 24 h): 30.49 fold or % | Atm fold increase or percent reduction vs vehicle control (75 mg/kg BIDx1, 24 h): 23.68 fold or % | Atr fold increase or percent reduction vs vehicle control (75 mg/kg BIDx1, 24 h): 10.08 fold or % | Bag1 fold increase or percent reduction vs vehicle control (75 mg/kg BIDx1, 24 h): 25.05 fold or % | Bax fold increase or percent reduction vs vehicle control (75 mg/kg BIDx1, 24 h): 1.60 fold or % | Bbc3 fold increase or percent reduction vs vehicle control (75 mg/kg BIDx1, 24 h): 1.80 fold or % | Bcl2 fold increase or percent reduction vs vehicle control (75 mg/kg BIDx1, 24 h): 30.58 fold or % | Bid fold increase or percent reduction vs vehicle control (75 mg/kg BIDx1, 24 h): 1.04 fold or % | Birc5 fold increase or percent reduction vs vehicle control (75 mg/kg BIDx1, 24 h): 45.92 fold or % | Brca1 fold increase or percent reduction vs vehicle control (75 mg/kg BIDx1, 24 h): 42.43 fold or % | Brca2 fold increase or percent reduction vs vehicle control (75 mg/kg BIDx1, 24 h): 36.40 fold or % | Btg2 fold increase or percent reduction vs vehicle control (75 mg/kg BIDx1, 24 h): 31.06 fold or %
